The source of these data is patent US20260314597A1, “A NOVEL APPROACH TO INTERFERE IN THE PHENYLPROPANOID BIOSYNTHETIC PATHWAY TO REDUCE PINK-RIB DISORDER IN FRESH LETTUCE” (University of Florida Research Foundation, Inc., priority 2022, published 2026).

In test [1] the test system is fresh lettuce midribs. As to conditions: literature treatments; cited from earlier work.
The test system of test [2] is PPO. Conditions: role: substrate; lettuce tissues; cited from earlier work.
The test system of test [3] is PAL. As to conditions: naringenin; cited from earlier work.
Test [4] has as its system iceberg and Romaine lettuce midribs. Nature of the test: Visual (subjective) pink rib development in wounded, immersed lettuce midribs stored at 5° C. In kind it is in vivo. Conditions: for reduction of pink rib severity: naringenin (1.8 mM) and serotonin, reason for not imaging. The protocol: Six preliminary experiments were performed to determine treatment conditions for the three final experiments reported here. It was determined that the method developed by Cantwell (2016) induced pink rib discoloration in lettuce midribs during storage at 5° C. via mimicking mechanical damage and was, therefore, selected for use in all preliminary and final tests. […] Concentrations evaluated were: L-cysteine (0.4, 0.8, 2.1, 4.1, 8.3 mM), naringenin (0.2, 0.4, 0.9, 1.8, 3.7 mM), serotonin (2.8, 5.7 mM), and melatonin (0.2, 0.4, 1.1, 2.2, 4.3 mM) (data not presented). […] Therefore, this study employed the one or two concentrations for each compound with the greatest potential efficacy in three independent tests, Test 1 to 3 (Table 1).
For Test 1, the evaluations for pink rib development, protein quantification, and enzyme activity were conducted with Romaine and iceberg lettuce heads (36 heads per type; cultivars unknown) purchased (February 2020) upon arrival at a local grocery store in Gainesville, FL, and immediately transported to the Postharvest Horticulture Laboratory at the University of Florida in Gainesville, FL. For Test 2, metabolite extraction and detection were conducted with commercially grown, harvested, and cooled Romaine (‘Tall Guzmaine’) and iceberg (‘Chosen’) lettuce (December 2020) grown in Belle Glade, FL. For Test 3, untargeted metabolomics was performed using commercially grown, harvested, and cooled Romaine (‘Manatee’) lettuce grown in Belle Glade, FL (April 2021). To keep the lettuce head samples cool while preventing freeze damage during transport, a 3- to 6-inch layer of crushed ice was placed on the bottom of each 114-L cooler. A piece of waxed, corrugated fiberboard was placed on top of the ice prior to packing with the lettuce samples for transport the same day to the Postharvest Horticulture Laboratory in Gainesville (approximately 4 h distant).
In all tests, experimental setup began immediately upon arrival to the laboratory. 90 outer leaves were randomly selected from 18 to 22 lettuce heads that met commercial and damage-free quality standards. A midrib segment (12.5 cm) was excised from the center of each leaf and excess leaf blade tissue was trimmed parallel to the midrib. This procedure was adapted from the wounding procedure of Cantwell (2016). Each midrib was then partially sliced transversally at 1.3-cm increments along the midrib. Midribs (n=15) were immediately immersed for 30 s in one of five treatment solutions: deionized water (wounded control), L-cysteine (4.1 mM), naringenin (1.8 mM) with 20% dimethyl sulfoxide (DMSO), serotonin (2.8 or 5.7 mM) or melatonin (4.3 mM) with 0.50% DMSO. Immediately following immersion, the midribs for each treatment were patted dry using paper towels and placed (n=5) in a breathable, high-density polyethylene bag (n=3) (Narrow Profile Produce Bags [14×18 inches] Model No. S-19156, Uline®, Pleasant Prairie, WI). Unwounded control midribs were stored in the same manner. To allow for direct comparison, each cut site on each midrib was assigned an initial discoloration value on day 1 based on the coloration of the rib. Samples were stored at 5° C. with 95-98% relative humidity (RH) for 5 d, simulating commercial storage.
All chemicals were of laboratory or reagent grade from Alfa Aesar (Thermo Fisher Scientific, Ward Hill, MA, USA) or Phyto Technology Laboratories (Shawnee Mission, KS, USA). L-cysteine (4.1 mM) solution was prepared by dissolving […] in 100 ml deionized water. Naringenin (1.8 mM) solution was prepared by dissolving […] in 20 mL of DMSO and diluting to a 100 mL volume with deionized water. A stock solution of serotonin (5.7 mM) was prepared by dissolving 100 mg of serotonin in 100 ml of deionized water; a second solution of serotonin (2.8 mM) was prepared by diluting the stock solution two-fold with deionized water. […]

For test [5] the following is noted: naringenin; in vitro for lettuce; cited from earlier work.
Test [6] deals with apple and pear discs. Conditions: serotonin 1 mM, 4° C., cited from earlier work.

Entries after “also recorded” stand apart in the source; their conditions may differ.

Take `CC1=CC1` [1-methylcyclopropene]: the “effectiveness in reducing pink rib discoloration” value in test [1] is “slightly effective or completely ineffective”.
With `CCCCCCc1ccc(O)cc1O` [4-hexylresorcinol], the “effectiveness in reducing pink rib discoloration” value in test [1] is “slightly effective or completely ineffective”.
Consider `[Cl-].[Na+]` [NaCl], for which the “effectiveness in reducing pink rib discoloration” value in test [1] is “slightly effective or completely ineffective”.
Turning to `O=C(/C=C/c1ccc(O)c(O)c1)O[C@@H]1C[C@](O)(C(=O)O)C[C@@H](O)[C@H]1O` [chlorogenic acid], the “specificity to PPO” value in test [2] is “greatest specificity to PPO”.
Take `O=C(O)CC(O)(CC(=O)O)C(=O)O` [citric acid]: in test [1], the “effectiveness in reducing pink rib discoloration” value is given as “slightly effective or completely ineffective”.
For `C=C` [ethylene], in test [1], the “effectiveness in reducing pink rib discoloration” value is “slightly effective or completely ineffective”.
As for `O=C(O)CN(CCN(CC(=O)O)CC(=O)O)CC(=O)O` [ethylenediaminetetracetic acid (EDTA), ethylenediaminetetracetic acid], in test [1], the “effectiveness in reducing pink rib discoloration” value is given as “slightly effective or completely ineffective”.
For the compound `N[C@@H](CCC(=O)N[C@@H](CS)C(=O)NCC(=O)O)C(=O)O` [glutathione], the “effectiveness in reducing pink rib discoloration” value in test [1] is given as “slightly effective or completely ineffective”.
Regarding `O=C1C[C@@H](c2ccc(O)cc2)Oc2cc(O)cc(O)c21` [naringenin], in test [3], the “PAL activity and subsequent development of phenylpropanoids” value is “represses PAL activity and subsequent development of phenylpropanoids”. Moreover, the “pink rib severity (visual rating)” value is listed as “moderately severe (4=moderately severe)” in test [4] (iceberg, naringenin 1.8 mM, 5 d at 5° C.) and “moderately severe (4=moderately severe)” in test [4] (iceberg, naringenin immersion up to 3.7 mM, 5 d at 5° C.). Further, the “reduction of pink rib severity” value in test [4] is “unsuccessful reduction of pink rib severity; also recorded: equally unsuccessful”. Further, the “effect on pink rib” value in test [4] (naringenin up to 3.7 mM, 5 d at 5° C.) is “did not successfully reduce pink rib”. Further, the “antioxidant capacity (FRAP)” value in test [5] is “increase in antioxidant capacity”.
On to `O=C(O)c1ccc(O)cc1` [p-hydroxybenzoic acid], for which the “effectiveness in reducing pink rib discoloration” value in test [1] is “slightly effective or completely ineffective”.
Turning to `NCCc1c[nH]c2ccc(O)cc12` [serotonin], the “pink rib severity (visual rating)” value in test [4] (Romaine, serotonin 2.8 or 5.7 mM, 5 d at 5° C.) was “moderately severe (4=moderately severe)”. In addition, the “pink rib severity (visual rating)” value in test [4] (iceberg, serotonin 2.8 or 5.7 mM, 5 d at 5° C.) was “moderate (3=moderate)”. In addition, the “reduction of pink rib severity” value in test [4] is “unsuccessful reduction of pink rib severity”. In addition, the “effect on pink rib development” value in test [4] (serotonin, iceberg and Romaine, 5 d at 5° C.) is recorded as “did not reduce pink rib development in either lettuce type”. Besides, the “extension of bright appearance” value in test [6] (30-min submersion) is “up to 6 months”. Also, in test [6] (30 min), the “browning inhibition compared with ascorbic acid” value is “more effective than ascorbic acid” and the “duration of browning inhibition” value is listed as “up to 24 h”.
